Consider eight compounds from ChEMBL document CHEMBL1201862, “PubChem BioAssay data set” (2004).

Experiment in all cases: NCI-60 cell line screen, 48 h
For test [1], the system named is OVCAR-4.
In test [2] the test system is RXF 393.
Test [3] deals with DMS-114.
For test [4], the system named is UACC-62.
Test [5] relates to K562.
Test [6] relates to NCI-H226.
Test [7] deals with TK-10.
The subject of test [8] is SW-620.
Test [9] relates to M14.
The subject of test [10] is 786-0.
The test system of test [11] is DU-145.
In test [12] the test system is PC-3.
The test system of test [13] is OVCAR-5.
The subject of test [14] is SK-MEL-5.
Test [15] relates to UACC-257.
Test [16] concerns HCT-15.
Test [17] relates to DLD-1.
The subject of test [18] is COLO 205.
For test [19], the system named is MDA-N.
The test system of test [20] is SR.

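Following 48 hours of exposure in 96-well plates, responses at five concentrations were used to interpolate endpoints linearly. Here, GI50 denotes the concentration required for 50% inhibition of growth.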 Active and inactive are the calls of the source. No stated cut-off is given here; in the data, active = GI50 up to about 1.1 µM and inactive = higher. A value given as a limit tells only on which side of the number the result lay.

For the compound `CC[C@@]1(O)CC(OC2CC(N3CCOCC3)C(O)C(C)O2)c2c(O)c3c(c(O)c2[C@H]1O)C(=O)c1cccc(O)c1C3=O` (stereo partly specified), the GI50 was 0.231 µM (active) in [1]; 0.196 µM (active) in [2]; 0.0935 µM (active) in test [3]; 0.0667 µM (active) in test [4]; 0.112 µM (active) in test [5]; 0.0893 µM (active) in test [6]. Moreover, the GI50 in [7] was 0.452 µM (active); in [8] it was 0.0469 µM (active); in [9], 0.356 µM (active); in [10], 0.0407 µM (active); in test [11] it was 0.084 µM (active); in [12], 0.0957 µM (active). Besides, the GI50 in [13] is 0.371 µM (active); in [14], 0.0966 µM (active); in [15], 0.214 µM (active); in test [16] it was 0.0573 µM; in [17], 0.143 µM (active); in test [18], 0.0847 µM (active). Moreover, the values for the GI50 in test [19] and in test [20] were 0.131 µM (active) and 0.0193 µM (active), respectively.

Consider `O=C1/C(=N\O)c2ccccc2S1(=O)=O`, for which the GI50 in test [1] is > 100 µM (inactive); in test [2] it was > 100 µM (inactive); in test [3], > 100 µM (inactive); in test [4], 95.9 µM (inactive); in [5] it was > 100 µM (inactive); in test [6], 19.4 µM (inactive). In addition, the GI50 was 61.5 µM (inactive) in test [7]; > 100 µM (inactive) in test [8]; > 100 µM (inactive) in test [9]; 61 µM (inactive) in [10]; > 100 µM (inactive) in test [13]; > 100 µM (inactive) in test [14]. Moreover, the GI50 is > 100 µM (inactive) in test [15]; above 100 µM in test [16]; > 100 µM (inactive) in [17]; 13.6 µM (inactive) in test [18]; 79.3 µM (inactive) in test [20].

Consider `COc1cc2c(cc1OC)-c1cc(OC)c(OC)cc1[C@H]1CN3CCC[C@@]3(O)C=C21`, for which the GI50 in test [1] is < 0.0001 µM (active); in test [2] it was 0.01 µM (active); in test [3], < 0.0001 µM (active); in test [4], < 0.0001 µM (active); in test [5], < 0.0001 µM (active); in test [6], < 0.0001 µM (active). The GI50 is 0.000145 µM (active) in test [7]; < 0.0001 µM (active) in test [8]; < 0.0001 µM (active) in test [9]; < 0.0001 µM (active) in test [10]; < 0.0001 µM (active) in [13]; < 0.0001 µM (active) in test [14]. The GI50 in test [15] was < 0.0001 µM (active); in [16], below 0.0001 µM; in test [17], < 0.0001 µM (active); in test [18] it was < 0.0001 µM (active); in test [20], < 0.0001 µM (active).

On to `CN1CN(C2OC(CO)C(O)C2O)c2nc(N)[nH]c(=O)c21` (stereo unspecified), for which the GI50 in test [1], in [2], in test [3], in test [4], in [5] and in test [6] was > 100 µM (inactive) each time. Besides, the GI50 in test [7], in test [8], in test [9], in [10], in [13] and in [14] was > 100 µM (inactive) each time. In addition, the GI50 was > 100 µM (inactive) in [15]; above 100 µM in test [16]; > 100 µM (inactive) in test [17]; > 100 µM (inactive) in test [18]; > 100 µM (inactive) in test [20].

On to `N#CC1CCCCOCCOCCOCCOCCOCCCCCC1=O` (stereo unspecified), for which the GI50 in test [1], in [2], in [3], in test [4], in test [5] and in test [6] was > 100 µM (inactive) each time. In addition, the GI50 in test [7], in [8], in [9], in test [10], in test [13] and in test [14] was > 100 µM (inactive) in each case. The GI50 in test [15] was > 100 µM (inactive); in test [16], above 100 µM; in test [17] it was > 100 µM (inactive); in test [18], > 100 µM (inactive); in test [20] it was > 100 µM (inactive).

`O=C(Cc1csc(-c2nc(CC(=O)NNc3ccccc3)cs2)n1)NNc1ccccc1`: the GI50 is > 100 µM (inactive) in test [1]; > 100 µM (inactive) in [2]; 25.6 µM (inactive) in [3]; > 100 µM (inactive) in test [4]; 32.8 µM (inactive) in test [5]; > 100 µM (inactive) in [6]. The GI50 in test [7] was > 100 µM (inactive); in test [9] it was > 100 µM (inactive); in [10], 35.6 µM (inactive); in test [13], > 100 µM (inactive); in test [14], > 100 µM (inactive); in test [15], > 100 µM (inactive). Further, the GI50 in test [16] was 38.4 µM; in [17], 49 µM (inactive); in test [18] it was 25.9 µM (inactive); in [20], 25.5 µM (inactive).

Take `C/C(CCn1[nH]c(=O)ccc1=O)=N\O`: the GI50 in [1], in test [2], in [3], in test [4], in test [5] and in test [6] was > 100 µM (inactive) in each case. Besides, the GI50 in [7], in [8], in [9], in [10], in test [13] and in test [14] was > 100 µM (inactive) throughout. The GI50 was > 100 µM (inactive) in test [15], above 100 µM in test [16], > 100 µM (inactive) in test [17] and > 100 µM (inactive) in test [20].

In the case of `Cc1cc(C)nc(NS(=O)(=O)c2ccc(Nc3c4ccccc4nc4c(C(=O)NCCN(C)C)ccc(Cl)c34)cc2)n1`, the GI50 was 1.1 µM (active) in test [1]; 2.09 µM (inactive) in test [2]; 1.01 µM (active) in [3]; 1.74 µM (inactive) in test [4]; 1.14 µM (inactive) in test [5]; 0.7 µM (active) in test [6]. In addition, the GI50 was 5.07 µM (inactive) in test [7]; 0.679 µM (active) in [8]; 2.9 µM (inactive) in test [9]; 3.73 µM (inactive) in test [10]; 4.7 µM (inactive) in [13]; 4.38 µM (inactive) in test [14]. Besides, the GI50 in test [16] is 2.78 µM; in [17] it was 3.03 µM (inactive); in [18], 1.06 µM (active); in test [20] it was 0.259 µM (active).
